# Laboratory results from patent US20240058335A1, “METHODS FOR TREATMENT OF CANCER USING ABL INHIBITORS AND DRUGS TARGETING THE MEVALONATE PATHWAY” (Duke University, priority 2021, published 2024).
# Where two headings read alike, the source gives them in different places.
# Tests used:
# PC9 GR4 cells [1] = test: Cell viability dose-response assay (CellTiter-Glo), IC50 calculation; assay type: cell-based, human
# H460 cells = test: as above; assay type: cell-based, human
# H358 cells = test: as above; assay type: cell-based, human
# PC9 BrM3 cells = test: as above; assay type: cell-based, human; conditions: read-out: Calculated IC50
# [2] = system: lung cancer cells (PC9, PC9 GR4, H460, H358); test: Seahorse XF Analyzer Mito Stress Test (OCR: basal respiration, maximal respiration, ATP production); assay type: cell-based, human; conditions: for mitochondrial function (basal respiration, maximal respiration, ATP production; OCR): IC50 doses, 24 hours, PC9, PC9 GR4, H460, H358; for mitochondrial respiration in cells treated with ABL001 and simvastatin (MVA rescue and its reversal): PC9 GR4, added to ABL001 + simvastatin (inhibitors with MVA)
# Source text: (FIGS. 2A-2D) Seahorse XF Analyzer Mito Stress Test analysis of mitochondrial basal respiration, maximal respiration, and ATP production as measured by changes in oxygen consumption rate (OCR). […] (FIG. 2E) Mitochondrial basal respiration, maximal respiration, and ATP production as measured by Seahorse XF Analyzer's Mito Stress Test for PC9 cells harboring shRNAs against ABL1/ABL2 (shAA) and non-targeting control (shSCR). (FIGS. 2F-2G) Mitochondrial ROS (MitoROS) release as measured by FACS analysis of median fluorescent intensity (MFI) using Mitosox probe. […] Data are mean±SEM. […] Seahorse XF Analyzer Mito Stress Test analysis of mitochondrial basal respiration, maximal respiration, and ATP production as measured by changes in oxygen consumption rate (OCR) in the indicated lung cancer cells: (FIG. 8A) PC9; (FIG. 8B) PC9 GR4; (FIG. 8C) H460. […] Doses correspond to IC50 dose for each drug in the corresponding cell line. In each graph, for each of Basal Respiration, Maximal Respiration, and ATP production, data is shown from left to right for DMSO, GNF5, and Nilotinib. […] Cells were treated with IC50 doses for 24 hours (n=3). Data are mean±SEM. […] SEAHORSE MEASUREMENTS. Basal and maximal oxygen consumption rate and ATP production were measured using a Mito Stress test Kit and XF96 Extracellular Flux Analyzer (Seahorse Bioscience), according to manufacturer's instructions. Cells were plated in XF96 plates at 10,000 cells per well on Day 0. […] The plate was incubated in a non-CO2 incubator at 37° C. for 1 hr to equilibrate.
# [3] = system: PC9, PC9 GR4 and H460 cells; test: MitoSOX staining, mitochondrial ROS by FACS; assay type: cell-based, human; conditions: EGFR mutant PC9 and PC9 GR4 cells, IC50 doses, 24 hours
# PC9 and H460 cells = test: MitoTracker staining, mitochondria number and morphology; assay type: cell-based, human; conditions: IC50 dose, 24 hours
# Description: (FIG. 9A) Mitochondrial basal respiration, maximal respiration, and ATP production as measured by changes in oxygen consumption rate (OCR) from Seahorse XF Analyzer Mito Stress Test analysis for H460 cells harboring shRNAs against ABL1/ABL2 (shAA) and non-targeting control (shSCR). (FIG. 9B) FACS analysis of mitochondrial ROS (MitoROS) using mitosox probe in H460 cells treated with 15 NM GNF5, 15 NM ABL001, and 0.5 nM Docetaxel for 24 hours. n=3 (FIGS. 9C-9D) MitoROS in H460 AA knockdown cells (FIG. 9C) or PC9 AA knockdown cells (FIG. 9D). (FIGS. 9E-9F) M[…] to analyze mitochondria number in H460 cells with 15 NM GNF5 (FIG. 9E) or PC9 cells treated with 10 NM GNF5 (FIG. 9F). n=3 (FIGS. 9G-9H) M[…] of H460 AA knockdown cells (FIG. 9G) or PC9 AA knockdown cells (FIG. 9H). n=3 Statistical analysis was calculated using unpaired two-tailed t test *p<0.05, Data are mean±SEM. (FIG. 9I) H460 cells stained with Mitotracker and Hoescht 33342 following treatment with IC50 dose for each drug for 24 hours. Image quantification showing mitochondrial length×width plotted for thousands of mitochondria from >10 cells across at least two independent experiments. Changes were not statistically significant.
# M[…] . MitoTracker Red CMXRos was purchased from Thermofisher (cat. M7512). […] The samples were analyzed using flow cytometer BD FACS Canto II. […]
# [4] = system: lung cancer cells (PC9, PC9 GR4, PC9 BrM3, H460, H358); test: 72 hr growth inhibition / cell viability assay with drug combinations and metabolite rescue; assay type: cell-based, human; conditions: for cell survival in the presence of statins: PC9-BrM3, sub-therapeutic doses, 72 hrs; for cell survival on co-treatment with ABL001: PC9 GR4, PC9 and H460 cells; for rescue of cell survival in cells co-treated with ABL001 and simvastatin: metabolite supplement, 72 hours, PC9 GR4, PC9, H460
# PC9 cells [5] = test: cells; conditions: Homo sapiens, PC-9, read-out: Calculated IC50
# [6] = cited from earlier work
# PC9 cells [7] = conditions: read-out: Calculated IC50, dose-response assay
# [8] = system: lung cancer cells (PC9, PC9 GR4, PC9 BrM3, H460); test: Immunoblotting of apoptosis, prenylation and cytochrome c markers; assay type: cell-based, human; conditions: 24 hr
# PC9 GR4 cells [9] = test: Real-time quantitative PCR of BCL-2 family mRNAs; assay type: cell-based, human; conditions: PC9 GR4, metabolite supplement, 24 hours
# Description: (FIG. 5E) Immunoblots of cytochrome c, cleaved PARP, β-catenin, GAPDH, and β-Tubulin. […] Cytoplasmic, membrane, and whole cell fractions are shown for drug treatments. […] Data are mean±SEM. REAL-TIME QUANTITATIVE PCR. RNA was isolated from subconfluent monolayers of cancer cells using the RNeasy RNA isolation kit (QIAGEN), and cDNA synthesis was performed using oligo(dT) primers and M-MLV reverse transcriptase (Invitrogen). RT-qPCR was performed in triplicate wells using iTaq Universal SYBR Green Supermix (Bio-Rad). Primers used in this study were purchased from Sigma Aldrich. Analysis of real-time data was collected using a Bio-Rad CFX384 machine and CFX Maestro software. Expression levels of each gene were normalized to GAPDH control housekeeping genes using the ddCT algorithm.
# [10] = Homo sapiens, PC9 GR4, dose-response assay, read-out: Calculated IC50
# [11] = Homo sapiens, NCI-H460, H460, dose-response assay, read-out: Calculated IC50
# [12] = Homo sapiens, NCI-H358, H358, dose-response assay, read-out: Calculated IC50
# [13] = Homo sapiens, PC9 BrM3, dose-response assay
# [14] = PC9 GR4, dose-response assay, read-out: Calculated IC50
# [15] = H460, dose-response assay, read-out: Calculated IC50
Compound,"mitochondrial function (basal respiration, maximal respiration, ATP production; OCR) [2]",cell survival in the presence of statins [4],IC50 (PC9 cells [5]),IC50 (PC9 GR4 cells [1]; [10]),IC50 (H460 cells; [11]),IC50 (PC9 GR4 cells [1]; [14]),IC50 (H460 cells; [15]),mitochondrial respiration in cells treated with ABL001 and simvastatin (MVA rescue and its reversal) [2],IC50 (PC9 cells [7]),also measured
"O=C(Nc1ccc(OC(F)(F)Cl)cc1)c1cnc(N2CC[C@@H](O)C2)c(-c2ccn[nH]2)c1 [ABL001, Asciminib]",greatly decreased,decreased cell survival,7.5 µM,,,,,,,"IC50 (PC9 GR4 cells [1]; Homo sapiens, PC9/GR4, read-out: Calculated IC50): 7.5 µM; IC50 (H460 cells; Homo sapiens, NCI-H460, read-out: Calculated IC50): 15 µM; IC50 (H358 cells; Homo sapiens, NCI-H358, read-out: Calculated IC50): 15 µM; IC50 (PC9 BrM3 cells; Homo sapiens): 7.5 µM; mitochondrial reactive oxygen species (MitoROS) levels [3]: increased; mitochondrial morphology (length and width, network) (PC9 and H460 cells): marginal, nonsignificant increase; tolerability ([6]; mouse, in vivo, po): well tolerated; body weight ([6]; oral gavage, mice): does not induce weight loss; crossing of the BBB ([6]; preclinical mouse models): shown to cross the BBB"
"CC(=O)O[C@@]12CO[C@@H]1C[C@H](O)[C@@]1(C)C(=O)[C@H](O)C3=C(C)[C@@H](OC(=O)[C@H](O)[C@@H](NC(=O)OC(C)(C)C)c4ccccc4)C[C@@](O)([C@@H](OC(=O)c4ccccc4)[C@H]21)C3(C)C [Docetaxel, docetaxel]",did not significantly impair,did not affect cell survival,0.001 µM,0.001 µM,0.0005 µM,,,,,IC50 (H358 cells; [12]): 0.001 µM; IC50 (PC9 BrM3 cells; [13]): 0.001 µM
COC(=O)[C@H](CCSC)NC(=O)c1ccc(NC[C@@H](N)CS)cc1-c1ccccc1 [FTI-277],,,,,,50 µM,15 µM,minimal effect,50 µM,cell survival on co-treatment with ABL001 ([4]; 72 hr): only slightly decreased
CC(C)n1c(/C=C/C(O)CC(O)CC(=O)O)c(-c2ccc(F)cc2)c2ccccc21 (stereo not shown) [Fluvastatin],,,,,,2 µM,4 µM,,2 µM,"IC50 (H358 cells; H358, dose-response assay, read-out: Calculated IC50): 4 µM; IC50 (PC9 BrM3 cells; PC9 BrM3, dose-response assay): 2 µM"
"CC(C)=CCC/C(C)=C/CC/C(C)=C/CC/C(C)=C/COP(=O)(O)OP(=O)(O)O [GGPP, geranylgeranyl diphosphate]",,,,,,,,,,rescue of cell survival in cells co-treated with ABL001 and simvastatin [4]: preferentially rescued cell viability
COC(=O)[C@H](CC(C)C)NC(=O)c1ccc(NC[C@@H](N)CS)cc1-c1cccc2ccccc12 [GGTI-298],,,,,,20 µM,15 µM,negated the MVA rescue,20 µM,cell survival on co-treatment with ABL001 ([4]; 72 hr): significantly impaired
"COc1cc2ncnc(Nc3ccc(F)c(Cl)c3)c2cc1OCCCN1CCOCC1 [Gefitinib, gefitinib]",not impaired,did not affect cell survival,,,,,,,,
"C[C@@](O)(CCO)CC(=O)O [MVA, mevalonate]",,,,,,,,restored mitochondrial respiration back to baseline,,"rescue of cell survival in cells co-treated with ABL001 and simvastatin [4]: could rescue cell survival; reversal of cytochrome c release ([8]; PC9 GR4, 500 μM MVA added to ABL001 and simvastatin): reversed; prevention of PARP and caspase-3 cleavage in cells co-treated with ABL001 and simvastatin ([8]; metabolite supplement): prevented cleavage of PARP and caspase-3; restoration of BCL-2 family gene expression in combination-treated cells (PC9 GR4 cells [9]): restored gene expression back to baseline"
Cc1cn(-c2cc(NC(=O)c3ccc(C)c(Nc4nccc(-c5cccnc5)n4)c3)cc(C(F)(F)F)c2)cn1 [Nilotinib],inability of Nilotinib to inhibit mitochondria function,,2 µM,2 µM,2 µM,,,,,"cell viability on co-treatment with simvastatin or fluvastatin ([4]; PC9 GR4 and H460, sublethal doses, 72 hr): did not promote additive or synergistic decreases in cell viability"
"CCC(C)(C)C(=O)O[C@H]1C[C@@H](C)C=C2C=C[C@H](C)[C@H](CC[C@@H]3C[C@@H](O)CC(=O)O3)[C@H]21 [Simvastatin, simvastatin]",,,4 µM,4 µM,12 µM,,,,,IC50 (H358 cells; [12]): 12 µM; IC50 (PC9 BrM3 cells; [13]): 4 µM
